Consider 36 molecules from patent US12319655B2, “RAF kinase inhibitors and methods of use thereof” (Deciphera Pharmaceuticals, LLC, priority 2021, dated 2025).

The subject of one assay is H2405 cells. The assay can be described thus: H2405 Cell Proliferation Assay (2). To be noted: Homo sapiens, NCI-H2405. Type of assay: cell-based. The protocol: H2405 Cell Proliferation Assay (2)
H2405 cells (catalog #CRL-5994) are obtained from the American Type Culture Collect (ATTC, Manassas, VA). Briefly, cells were grown in RPMI 1640 supplemented with 5% characterized fetal bovine serum (Invitrogen, Carlsbad, CA) and 1% Penicillin/Streptomycin/L-Glutamine at 37° C., 5% CO2, and 95% humidity. Cells are expanded until reaching 70-95% confluency at which point they are sub-cultured or harvested for assay use. A serial dilution of test compound is dispensed into a 384-well black clear bottom plate in triplicate. Seven hundred fifty cells are added per well in 50 μL complete growth medium in the 384-well plate. Plates are incubated for 67-72 h at 37° C., 5% CO2, and 95% humidity. At the end of the incubation, 10 μL of a 440 μM solution of resazurin (Sigma, St. Louis, MO) in PBS is added to each well of the plate and plates are incubated for an additional 5-6 h at 37° C., 5% CO2, and 95% humidity. Plates are read on a Synergy2 or equivalent reader (Biotek, Winooski VT) using an excitation of 540 nm and an emission of 600 nm. Data is analyzed using Prism software (GraphPad, San Diego, CA) to calculate IC50 values

Assay [1] deals with B-Raf (V600E) (SEQ. ID NO: 4) kinase (Homo sapiens (Human), UniProt P15056, V600E). Briefly: Biochemical Assay for B-Raf (V600E) (1). The note with it: Table J, BRAF V600E, biochemical assay (1); read-out: BRAF VE (1). In short, it runs like this:
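Coupled pyruvate kinase/lactate dehydrogenase assay: 0.03 nM B-Raf V600E, 30.1 nM MEK, 1 mM ATP, pH 7.5 Tris/MgCl2 buffer, 1% DMSO. NADH oxidation followed at 340 nm for 6 h at 30 °C; rate from 3–4 h converted to percent inhibition, IC50 by four-parameter fit.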

Another assay concerns WM3928 cells. Briefly: WM3928 Cell Proliferation Assay (1). The format is cell-based. The gist of the method:
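IC50 was derived from resazurin fluorescence (ex 540, em 600 nm) after a 6–7 h dye incubation. Before that, cells had 67–72 h of compound exposure at 37 °C, 5% CO2.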

Assay [2] has as its target A-Raf kinase (SEQ. ID No: 1) (Homo sapiens (Human), UniProt P10398, Y301D/Y302D). Briefly: Biochemical Assay for A-Raf (1). The note with it: Table J, biochemical assay (1); read-out: ARAF (1). In short, it runs like this:
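A-Raf Y301D/Y302D at 5.55 nM phosphorylates 30.1 nM MEK with 1 mM ATP in pH 7.5 Tris buffer, 1% DMSO. Activity was read continuously as NADH oxidation at 340 nm in a pyruvate kinase/lactate dehydrogenase coupled system for 6 h at 30 °C. Rates from 4–5 h were converted to percent inhibition, and IC50 came from a four-parameter fit.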

Sequence of B-Raf (V600E) (SEQ. ID NO: 4) kinase (P15056 416-766 V600E): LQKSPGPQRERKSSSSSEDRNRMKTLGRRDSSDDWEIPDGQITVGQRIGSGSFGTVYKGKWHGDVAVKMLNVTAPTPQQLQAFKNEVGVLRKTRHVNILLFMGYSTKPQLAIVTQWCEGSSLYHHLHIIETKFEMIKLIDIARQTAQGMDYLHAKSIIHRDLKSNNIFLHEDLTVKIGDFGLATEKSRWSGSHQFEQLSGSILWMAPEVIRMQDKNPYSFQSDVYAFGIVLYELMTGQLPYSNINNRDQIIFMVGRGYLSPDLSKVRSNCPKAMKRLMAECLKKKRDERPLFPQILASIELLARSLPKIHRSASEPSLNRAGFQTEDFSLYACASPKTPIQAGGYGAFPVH
Sequence of A-Raf kinase (SEQ. ID No: 1) (P10398 other isoform, or with tags, fused parts or gaps Y301D (already in the parent)/Y302D (already in the parent)): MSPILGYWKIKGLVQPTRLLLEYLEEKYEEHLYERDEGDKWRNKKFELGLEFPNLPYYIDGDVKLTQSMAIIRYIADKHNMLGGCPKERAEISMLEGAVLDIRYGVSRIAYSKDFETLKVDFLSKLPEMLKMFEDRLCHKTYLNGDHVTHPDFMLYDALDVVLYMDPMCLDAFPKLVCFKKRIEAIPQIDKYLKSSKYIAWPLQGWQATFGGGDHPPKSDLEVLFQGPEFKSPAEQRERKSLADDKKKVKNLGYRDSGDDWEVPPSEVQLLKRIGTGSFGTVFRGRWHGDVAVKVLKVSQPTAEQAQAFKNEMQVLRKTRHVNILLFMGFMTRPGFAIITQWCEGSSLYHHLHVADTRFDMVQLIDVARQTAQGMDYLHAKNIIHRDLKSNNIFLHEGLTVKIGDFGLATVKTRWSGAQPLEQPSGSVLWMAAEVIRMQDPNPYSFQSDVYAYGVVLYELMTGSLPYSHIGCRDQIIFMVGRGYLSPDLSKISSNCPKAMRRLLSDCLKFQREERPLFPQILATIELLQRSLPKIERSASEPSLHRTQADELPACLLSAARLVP

As for `CNC(=O)c1cc(-c2cc(-c3cc(F)cc(NC(=O)c4ccnc(C(C)(C)F)c4)c3F)ccn2)ccn1` [Example 475], in the assay with H2405 cells, the IC50 lay in the range of 1 to 10 µM.
For `Cc1cc(F)c(NC(=O)c2ccnc(C(C)(C)C#N)c2)cc1-c1cncc(-c2ccnc(NC(=O)C3CC3)c2)c1` [Example 418], the IC50 in assay [1] is at most 0.1 µM; in the assay with WM3928 cells, at most 0.1 µM; in assay [2], 0.5 to 1 µM.
On to `COC(=O)Nc1cc(-c2cncc(-c3cc(NC(=O)c4ccnc(C(C)(C)F)c4)ccc3C)c2)ccn1` [Example 435], for which the IC50 in assay [1] is at most 0.1 µM; in the assay with WM3928 cells it was at most 0.1 µM; in assay [2], 1 to 10 µM.
Consider `Cc1ccc(NC(=O)c2ccnc(C(C)(C)F)c2)cc1-c1ccnc(-c2ccnc(C(=O)NCCN(C)C)c2)c1` [Example 453], for which the IC50 with H2405 cells was 0.1 to 0.5 µM.
Consider `Cc1ncc(NC(=O)c2ccnc(C(C)(C)F)c2)cc1-c1cncc(-c2cc(NC(=O)C3CC3)ncn2)c1` [Example 406], for which the IC50 was at most 0.1 µM in assay [1], at most 0.1 µM in the assay on WM3928 cells and 0.5 to 1 µM in assay [2].
On to `Cc1ncc(NC(=O)c2ccnc(C(C)(C)C#N)c2)cc1-c1cncc(-c2cc(NC(=O)C3CC3)ncn2)c1` [Example 410], for which the IC50 in assay [1] was at most 0.1 µM; in the assay on WM3928 cells, at most 0.1 µM; in assay [2] it was 1 to 10 µM.
Turning to `Cc1ccc(NC(=O)c2ccnc(C(F)F)c2)cc1-c1cncc(-c2cc(NC(=O)C3CC3)ncn2)c1` [Example 429], the IC50 in assay [1] was at most 0.1 µM; in the assay with WM3928 cells it was at most 0.1 µM; in assay [2], 0.1 to 0.5 µM.
For `COC(=O)Nc1cc(-c2cccc(-c3cc(NC(=O)c4ccnc(C(C)(C)F)c4)cnc3C)c2)ncn1` [Example 404], the IC50 was at most 0.1 µM in assay [1], 0.1 to 0.5 µM with WM3928 cells and 1 to 10 µM in assay [2].
As for `Cc1ccc(NC(=O)c2cc(C3CC3)on2)cc1-c1cncc(-c2cc(NC(=O)C3CC3)ncn2)c1` [Example 421], the IC50 is at most 0.1 µM in assay [1], at most 0.1 µM in the assay on WM3928 cells and 1 to 10 µM in assay [2].
In the case of `Cc1ccc(NC(=O)c2cn(C(C)C)nn2)cc1-c1cncc(-c2cc(NC(=O)C3CC3)ncn2)c1` [Example 412], the IC50 was at most 0.1 µM in assay [1], at most 0.1 µM in the assay on WM3928 cells and 0.1 to 0.5 µM in assay [2].
As for `CNC(=O)c1cc(-c2cc(-c3cc(NC(=O)c4ccnc(C(C)(C)C#N)c4)ccc3OC)ccn2)ccn1` [Example 437], the IC50 in assay [1] is at most 0.1 µM; in the assay with WM3928 cells, 0.5 to 1 µM; in assay [2] it was 1 to 10 µM.
The matching figures for `Cc1ccc(NC(=O)c2cc(C(C)(C)C)on2)cc1-c1cncc(-c2cc(NC(=O)C3CC3)ncn2)c1` [Example 431]: at most 0.1 µM, at most 0.1 µM and 0.1 to 0.5 µM.
The like results for `CNC(=O)c1cc(-c2nccc(-c3cc(NC(=O)c4ccnc(C(C)(C)F)c4)c(F)cc3C)n2)ccn1` [Example 427] were, in that order, at most 0.1 µM, at most 0.1 µM and 1 to 10 µM.
The like results for `COC(=O)Nc1cc(-c2cncc(-c3cc(NC(=O)c4ccnc(C(C)(C)C#N)c4)ccc3C)c2)ncn1` [Example 414] were, in that order, at most 0.1 µM, at most 0.1 µM and 1 to 10 µM.
`Cc1ccc(NC(=O)c2cnn(C3CC3)c2)cc1-c1cncc(-c2cc(NC(=O)C3CC3)ncn2)c1` [Example 430]: the IC50 was at most 0.1 µM in assay [1], at most 0.1 µM with WM3928 cells and 0.5 to 1 µM in assay [2].
Consider `COC(=O)Nc1cc(-c2cccc(-c3cc(NC(=O)Cn4cc(C(C)C)nn4)cnc3C)c2)ccn1` [Example 415], for which the IC50 (in assay [1]; with WM3928 cells; in assay [2]) was 1 to 10 µM throughout.
With `COc1ccc(NC(=O)c2ccnc(C(C)(C)C#N)c2)cc1-c1cccc(-c2cc(NC(=O)C3CC3)ncn2)c1` [Example 438], the IC50 in assay [1] was at most 0.1 µM; with WM3928 cells, at most 0.1 µM; in assay [2] it was 1 to 10 µM.
In the case of `COC(=O)Nc1cc(-c2cnnc(-c3cc(NC(=O)c4cn(C(C)C)nn4)ccc3C)c2)ccn1` [Example 409], the IC50 in assay [1] was 0.5 to 1 µM; with WM3928 cells, 1 to 10 µM; in assay [2], 1 to 10 µM.
With `Cc1ccc(NC(=O)c2ccnc(C(C)(C)F)c2)cc1-c1cncc(-c2ccnc(NC(=O)C3CC3)c2)c1` [Example 417], the IC50 in assay [1] is at most 0.1 µM; in the assay on WM3928 cells, at most 0.1 µM; in assay [2], 0.1 to 0.5 µM.
Turning to `Cc1ccc(NC(=O)c2ccnc(C(C)(F)F)c2)cc1-c1cncc(-c2cc(NC(=O)C3CC3)ncn2)c1` [Example 419], the IC50 in assay [1] is at most 0.1 µM; in the assay with WM3928 cells, at most 0.1 µM; in assay [2], 0.5 to 1 µM.
Turning to `Cc1ccc(NC(=O)c2ccnc(C(C)(C)F)c2)cc1-c1cncc(-c2ccnc3c2CC(=O)N3)c1` [Example 432], the IC50 in assay [1] is at most 0.1 µM; in the assay with WM3928 cells it was 0.1 to 0.5 µM; in assay [2], 1 to 10 µM.
The matching figures for `COC(=O)Nc1cc(-c2cncc(-c3cc(NC(=O)c4ccnc(C5(C#N)CC5)c4)ccc3C)c2)ncn1` [Example 405]: at most 0.1 µM, at most 0.1 µM and 1 to 10 µM.
The like results for `Cc1ccc(NC(=O)c2cc(C3CC3)n(C)n2)cc1-c1nccc(-c2ccnc(NC(=O)C3CC3)c2)n1` [Example 436] were, in that order, at most 0.1 µM, at most 0.1 µM and 0.5 to 1 µM.
As to `CNC(=O)c1cc(-c2cncc(-c3cc(NC(=O)c4ccnc(C(C)(C)F)c4)ccc3C)c2)ccn1` [Example 413], the IC50 in assay [1] was at most 0.1 µM; with WM3928 cells, at most 0.1 µM; in assay [2], 1 to 10 µM.
For the molecule `COC(=O)Nc1cc(-c2cc(-c3cc(NC(=O)c4ccnc(C(C)(C)F)c4)ccc3C)nc(C)n2)ccn1` [Example 416], the IC50 in assay [1] is at most 0.1 µM; in the assay with WM3928 cells it was at most 0.1 µM; in assay [2], 1 to 10 µM.
With `CNC(=O)c1cc(-c2cncc(-c3cc(NC(=O)c4ccnc(C(C)(C)F)c4)c(F)cc3C)c2)ccn1` [Example 408], the IC50 in assay [1] was at most 0.1 µM; in the assay on WM3928 cells, 0.1 to 0.5 µM; in assay [2] it was 1 to 10 µM.
The like results for `Cc1cc(F)c(NC(=O)c2ccnc(C(C)(C)F)c2)cc1-c1cncc(-c2cc(NC(=O)C3CC3)ncn2)c1` [Example 423] were, in that order, at most 0.1 µM, at most 0.1 µM and 1 to 10 µM.
Take `Cc1cc(F)c(NC(=O)c2ccnc(C(C)(C)C#N)c2)cc1-c1cncc(-c2cc(NC(=O)C3CC3)ncn2)c1` [Example 424]: the IC50 in assay [1] is at most 0.1 µM; in the assay with WM3928 cells, at most 0.1 µM; in assay [2], 0.5 to 1 µM.
Consider `Cc1ccc(NC(=O)c2ccnc(C(C)(C)C#N)c2)cc1-c1cncc(-c2cc(N)ncn2)c1` [Example 422], for which the IC50 in assay [1] was at most 0.1 µM; in the assay on WM3928 cells, 0.1 to 0.5 µM; in assay [2], 1 to 10 µM.
The matching figures for `Cc1ccc(NC(=O)c2ccnc(C(C)(C)C#N)c2)cc1-c1cncc(-c2cc(NC(=O)C(C)C)ncn2)c1` [Example 420]: at most 0.1 µM, at most 0.1 µM and 1 to 10 µM.
For the molecule `Cc1ccc(NC(=O)c2ccnc(C(C)C)c2)cc1-c1cncc(-c2cc(NC(=O)C3CC3)ncn2)c1` [Example 434], the figures for the IC50 (in assay [1]; in the assay on WM3928 cells; in assay [2]) were at most 0.1 µM, at most 0.1 µM and 0.1 to 0.5 µM, respectively.
With `Cc1ccc(NC(=O)c2ccnc(C(C)(C)F)c2)cc1-c1cncc(-c2cc(N)ncn2)c1` [Example 411], the figures for the IC50 (in assay [1]; in the assay on WM3928 cells; in assay [2]) were at most 0.1 µM, at most 0.1 µM and 1 to 10 µM, respectively.
On to `CNC(=O)c1cc(-c2cc(-c3cc(NC(=O)c4ccnc(C(C)(C)F)c4)ccc3C)nc(C)n2)ccn1` [Example 428], for which the IC50 is at most 0.1 µM in assay [1], 0.1 to 0.5 µM with WM3928 cells and 1 to 10 µM in assay [2].
Consider `Cc1ncc(NC(=O)c2ccnc(C(C)(C)F)c2)cc1-c1cncc(-c2ccnc(NC(=O)C3CC3)c2)c1` [Example 433], for which the IC50 in assay [1] is at most 0.1 µM; with WM3928 cells, at most 0.1 µM; in assay [2], 1 to 10 µM.
For `COC(=O)Nc1cc(-c2cncc(-c3cc(NC(=O)c4ccnc(C(C)(C)F)c4)ccc3C)c2)ncn1` [Example 425], the IC50 in assay [1] is at most 0.1 µM; in the assay on WM3928 cells, at most 0.1 µM; in assay [2], 1 to 10 µM.
Take `Cc1ncc(NC(=O)c2ccnc(C(C)(C)C#N)c2)cc1-c1cccc(-c2cnc3ccccn23)c1` [Example 407]: the IC50 in assay [1] was 0.1 to 0.5 µM; in the assay on WM3928 cells it was 1 to 10 µM; in assay [2], 1 to 10 µM.
